Experiments:
Format in all cases: in vivo
[1] = tested on: Annual bluegrass; assay: Pre-emergence herbicide test; details: 1.12 kg/ha, read-out: % plant inhibition (Anbg)
Summary of the method: (§1)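 Known dose of active, dissolved or suspended in acetone or water, delivered onto seed bed prior to emergence and buried under untreated topsoil. Greenhouse incubation with watering from below. Percentage inhibition rated 10-14 days after seeding.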

[2] = tested on: Barnyardgrass; assay: Pre-emergence herbicide test; details: Echinochloa crus-galli, 1.12 kg/ha, read-out: % plant inhibition (Bygr)
Summary of the method: as §1

[3] = tested on: Cocklebur; assay: Pre-emergence herbicide test; details: Xanthium strumarium, 1.12 kg/ha, read-out: % plant inhibition (Cobu)
Summary of the method: as §1

[4] = tested on: Downy Brome; assay: Pre-emergence herbicide test; details: Bromus tectorum, 1.12 kg/ha, read-out: % plant inhibition (Dobr)
Summary of the method: as §1

[5] = tested on: Indian Mustard; assay: Pre-emergence herbicide test; details: Brassica juncea, 1.12 kg/ha, read-out: % plant inhibition (Inmu)
Summary of the method: as §1

[6] = tested on: Morningglory; assay: Pre-emergence herbicide test; details: Ipomoea, 1.12 kg/ha, read-out: % plant inhibition (Mogl)
Summary of the method: as §1

[7] = tested on: Seedling johnsongrass; assay: Pre-emergence herbicide test; details: Sorghum halepense, 1.12 kg/ha, read-out: % plant inhibition (Sejg)
Summary of the method: as §1

[8] = tested on: Velvetleaf; assay: Pre-emergence herbicide test; details: Abutilon theophrasti, 1.12 kg/ha, read-out: % plant inhibition (Vele)
Summary of the method: as §1

[9] = tested on: Wild buckwheat; assay: Pre-emergence herbicide test; details: Fallopia convolvulus, 1.12 kg/ha, read-out: % plant inhibition (Wibw)
Summary of the method: as §1

[10] = tested on: Yellow nutsedge; assay: Pre-emergence herbicide test; details: Cyperus, 1.12 kg/ha, read-out: % plant inhibition (Yens)
Summary of the method: as §1

[11] = tested on: Annual bluegrass; assay: Post-emergence herbicide test; details: 1.12 kg/ha, read-out: % plant inhibition (Anbg)
Summary of the method: (§2)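 Foliar spray trial in greenhouse pans: two- to three-week-old plants treated at 200 gallons/acre by atomizer, spray containing about 0.4% emulsifier. Percent inhibition compared with untreated controls was recorded around day 11.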

[12] = tested on: Barnyardgrass; assay: Post-emergence herbicide test; details: Echinochloa crus-galli, 1.12 kg/ha, read-out: % plant inhibition (Bygr)
Summary of the method: as §2

[13] = tested on: Cocklebur; assay: Post-emergence herbicide test; details: Xanthium strumarium, 1.12 kg/ha, read-out: % plant inhibition (Cobu)
Summary of the method: as §2

[14] = tested on: Downy Brome; assay: Post-emergence herbicide test; details: Bromus tectorum, 1.12 kg/ha, read-out: % plant inhibition (Dobr)
Summary of the method: as §2

[15] = tested on: Indian Mustard; assay: Post-emergence herbicide test; details: Brassica juncea, 1.12 kg/ha, read-out: % plant inhibition (Inmu)
Summary of the method: as §2

[16] = tested on: Morningglory; assay: Post-emergence herbicide test; details: Ipomoea, 1.12 kg/ha, read-out: % plant inhibition (Mogl)
Summary of the method: as §2

[17] = tested on: Seedling johnsongrass; assay: Post-emergence herbicide test; details: Sorghum halepense, 1.12 kg/ha, read-out: % plant inhibition (Sejg)
Summary of the method: as §2

[18] = tested on: Velvetleaf; assay: Post-emergence herbicide test; details: Abutilon theophrasti, 1.12 kg/ha, read-out: % plant inhibition (Vele)
Summary of the method: as §2

[19] = tested on: Wild buckwheat; assay: Post-emergence herbicide test; details: Fallopia convolvulus, 1.12 kg/ha, read-out: % plant inhibition (Wibw)
Summary of the method: as §2

[20] = tested on: Yellow nutsedge; assay: Post-emergence herbicide test; details: Cyperus, 1.12 kg/ha, read-out: % plant inhibition (Yens)
Summary of the method: as §2

SMILES | inhibition at 1120 g/ha [1] [%] | inhibition at 1120 g/ha [2] [%] | inhibition at 1120 g/ha [3] [%] | inhibition at 1120 g/ha [4] [%] | inhibition at 1120 g/ha [5] [%] | inhibition at 1120 g/ha [6] [%] | inhibition at 1120 g/ha [7] [%] | inhibition at 1120 g/ha [8] [%] | inhibition at 1120 g/ha [9] [%] | inhibition at 1120 g/ha [10] [%] | inhibition at 1120 g/ha [11] [%] | inhibition at 1120 g/ha [12] [%] | inhibition at 1120 g/ha [13] [%] | inhibition at 1120 g/ha [14] [%] | inhibition at 1120 g/ha [15] [%] | inhibition at 1120 g/ha [16] [%] | inhibition at 1120 g/ha [17] [%] | inhibition at 1120 g/ha [18] [%] | inhibition at 1120 g/ha [19] [%] | inhibition at 1120 g/ha [20] [%]
Cn1nc(-c2cc(C=O)c(Cl)cc2F)c(Cl)c1C(F)(F)F [Compound 133, 2-chloro-5-[4-chloro-1-methyl-5-(trifluoromethyl)-1H-pyrazol-3-yl]-4-fluorobenzaldehyde] | 20 | 80 | 40 | 0 | 100 | 70 | 80 | 100 | 70 | 20 | 0 | 50 | 100 | 20 | 40 | 100 | 50 | 100 | 80 | 40
Cn1nc(-c2cc(C(=O)OC3CCCCC3)c(Cl)cc2F)c(Cl)c1C(F)(F)F [Compound 134] | 50 | 10 | 30 | 70 | 60 | 20 | 40 | 70 | 90 | 0 | 100 | 100 | 100 | 100 | 100 | 100 | 100 | 100 | 100 | 20
CCC(C)OC(=O)c1cc(-c2nn(C)c(C(F)(F)F)c2Cl)c(F)cc1Cl (centres unmarked) [Compound 136] | 90 | 70 | 80 | 100 | 90 | 80 | 90 | 90 | 100 | 0 | 100 | 100 | 100 | 100 | 100 | 100 | 100 | 100 | 100 | 10
CCOC(=O)C(C)OC(=O)c1cc(-c2nn(C)c(C(F)(F)F)c2Cl)c(F)cc1Cl (centres unmarked) [Compound 138, 2-Chloro-5-(4-chloro-1-methyl-5-(trifluoromethyl)-1H-pyrazol-3-yl)-4-fluorobenzoic acid, 2-ethoxy-1-methyl-2-oxoethyl ester] | 40 | 50 | 100 | 90 | 100 | 100 | 30 | 100 | 100 | 20 | 100 | 100 | 100 | 100 | 100 | 100 | 100 | 100 | 100 | 20
CC(C)COC(=O)c1cc(-c2nn(C)c(C(F)(F)F)c2Cl)c(F)cc1Cl [Compound 139] | 20 | 30 | 70 | 80 | 90 | 70 | 40 | 100 | 90 | 20 | 90 | 100 | 90 | 100 | 100 | 100 | 100 | 100 | 100 | 10
CCC(C)COC(=O)c1cc(-c2nn(C)c(C(F)(F)F)c2Cl)c(F)cc1Cl (centres unmarked) [Compound 140] | 30 | 0 | 80 | 60 | 70 | 70 | 70 | 90 | 70 | 0 | 100 | 100 | 100 | 100 | 90 | 100 | 100 | 100 | 90 | 10
CC(C)CCOC(=O)c1cc(-c2nn(C)c(C(F)(F)F)c2Cl)c(F)cc1Cl [Compound 141] | 20 | 20 | 70 | 70 | 80 | 80 | 50 | 70 | 90 | 0 | 90 | 70 | 90 | 100 | 80 | 100 | 90 | 100 | 100 | 0
CCOC(=O)c1cc(-c2nn(C)c(C(F)(F)F)c2Cl)c(F)cc1Cl [Compound 148, 2-Chloro-5-(4-chloro-1-methyl-5-(trifluoromethyl)-1H-pyrazol-3-yl)-4-fluorobenzoic acid, ethyl ester] | 70 | 90 | 90 | 80 | 100 | 100 | 50 | 100 | 100 | 0 | 100 | 100 | 100 | 100 | 100 | 100 | 100 | 100 | 100 | 20
Cn1nc(-c2cc(N)c(Cl)cc2F)c(Cl)c1C(F)F [Compound 178] | 20 | 10 | 20 | 30 | 90 | 50 | 10 | 100 | 100 | 0 | 90 | 70 | 90 | 90 | 70 | 100 | 70 | 100 | 100 | 0
Cn1nc(-c2cc([N+](=O)[O-])c(Cl)cc2F)c(Cl)c1C(F)F [Compound 198] | 0 | 0 | 0 | 0 | 20 | 0 | 0 | 80 | 70 | 0 | 50 | 50 | 70 | 70 | 100 | 90 | 70 | 100 | 100 | 0
